Columns and labels:
panel of 168 GPCRs = assay: PathHunter β-arrestin cell-based assays, antagonist primary screen; conditions: for antagonistic activity in the primary screen: 20 μM, significant = ≥80% inhibition; for hit rate: from the 168 GPCRs tested; for number of GPCRs antagonized at ≥80% inhibition: primary screen at 20 μM
chemokine receptor CCR3 = molecular target: T1, chemokine receptor CCR3 (Homo sapiens, UniProt P51677); assay: PathHunter β-arrestin antagonist assay; assay type: cell-based
T1 sequence (P51677 1-355): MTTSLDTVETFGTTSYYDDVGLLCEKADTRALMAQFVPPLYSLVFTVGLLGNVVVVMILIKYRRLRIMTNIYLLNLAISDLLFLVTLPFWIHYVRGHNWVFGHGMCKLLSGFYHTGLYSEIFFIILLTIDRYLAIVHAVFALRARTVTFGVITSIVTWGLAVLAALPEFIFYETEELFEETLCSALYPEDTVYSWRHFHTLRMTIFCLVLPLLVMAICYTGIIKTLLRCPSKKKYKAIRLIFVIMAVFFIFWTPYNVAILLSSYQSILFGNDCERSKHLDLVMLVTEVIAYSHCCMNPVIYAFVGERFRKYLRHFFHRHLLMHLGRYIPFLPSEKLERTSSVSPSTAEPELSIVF

chemokine receptor CCR8 = chemokine receptor CCR8 (Homo sapiens, UniProt P51685); assay: PathHunter β-arrestin antagonist assay; assay type: cell-based
Sequence of chemokine receptor CCR8 (P51685 whole entry): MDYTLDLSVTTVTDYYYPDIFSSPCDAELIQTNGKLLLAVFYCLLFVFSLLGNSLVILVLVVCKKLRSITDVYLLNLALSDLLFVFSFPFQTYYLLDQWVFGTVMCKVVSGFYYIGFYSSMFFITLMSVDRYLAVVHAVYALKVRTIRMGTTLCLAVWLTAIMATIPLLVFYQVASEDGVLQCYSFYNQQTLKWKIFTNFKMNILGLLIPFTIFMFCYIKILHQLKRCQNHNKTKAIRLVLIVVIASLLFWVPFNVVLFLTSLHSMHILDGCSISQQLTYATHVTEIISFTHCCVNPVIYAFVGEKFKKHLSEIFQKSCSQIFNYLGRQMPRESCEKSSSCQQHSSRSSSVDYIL

CX3CR1 = molecular target: T2, CX3CR1 (Homo sapiens, UniProt P49238); assay: PathHunter β-arrestin antagonist assay; assay type: cell-based
T2 sequence (P49238 1-355): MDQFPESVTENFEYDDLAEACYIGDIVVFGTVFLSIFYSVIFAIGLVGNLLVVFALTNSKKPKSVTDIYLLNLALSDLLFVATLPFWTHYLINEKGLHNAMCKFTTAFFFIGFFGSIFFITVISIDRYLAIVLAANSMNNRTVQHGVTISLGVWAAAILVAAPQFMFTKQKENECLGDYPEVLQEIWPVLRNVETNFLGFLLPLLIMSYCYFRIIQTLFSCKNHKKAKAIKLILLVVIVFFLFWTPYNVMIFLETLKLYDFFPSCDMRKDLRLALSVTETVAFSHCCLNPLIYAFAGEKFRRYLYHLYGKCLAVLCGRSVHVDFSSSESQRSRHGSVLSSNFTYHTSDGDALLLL

CXCR4 = CXCR4 (Homo sapiens, UniProt P61073); assay: PathHunter β-arrestin antagonist assay; assay type: cell-based
Sequence of CXCR4 (P61073 whole entry): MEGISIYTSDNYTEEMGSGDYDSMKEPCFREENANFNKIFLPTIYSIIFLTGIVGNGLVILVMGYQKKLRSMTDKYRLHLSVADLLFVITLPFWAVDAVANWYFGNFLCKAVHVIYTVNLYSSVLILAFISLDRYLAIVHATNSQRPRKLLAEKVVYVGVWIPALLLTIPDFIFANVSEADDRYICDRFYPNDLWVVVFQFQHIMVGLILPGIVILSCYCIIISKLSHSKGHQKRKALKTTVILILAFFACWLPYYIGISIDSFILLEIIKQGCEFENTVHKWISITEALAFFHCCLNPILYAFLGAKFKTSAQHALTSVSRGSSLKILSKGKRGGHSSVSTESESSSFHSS

[1] = molecular target: T3, 5-hydroxytryptamine (serotonin) receptor (HTR2C) (Homo sapiens, UniProt P28335); assay: PathHunter β-arrestin antagonist assay; assay type: cell-based
T3 sequence (P28335 33-458): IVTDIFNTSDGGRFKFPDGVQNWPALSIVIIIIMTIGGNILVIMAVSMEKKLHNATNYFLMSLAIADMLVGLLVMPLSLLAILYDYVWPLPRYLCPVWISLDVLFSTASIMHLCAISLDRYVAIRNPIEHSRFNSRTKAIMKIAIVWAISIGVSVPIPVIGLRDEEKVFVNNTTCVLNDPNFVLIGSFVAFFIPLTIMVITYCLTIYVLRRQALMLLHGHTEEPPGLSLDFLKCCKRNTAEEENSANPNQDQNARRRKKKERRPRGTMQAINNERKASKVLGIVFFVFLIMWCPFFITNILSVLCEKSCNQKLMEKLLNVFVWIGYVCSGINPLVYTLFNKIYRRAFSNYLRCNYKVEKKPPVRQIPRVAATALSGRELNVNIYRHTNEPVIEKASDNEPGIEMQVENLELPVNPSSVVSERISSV

[2] = molecular target: T4, follicle-stimulating hormone receptor (FSHR) (Homo sapiens, UniProt P23945); assay: PathHunter β-arrestin antagonist assay; assay type: cell-based
T4 sequence (P23945 18-695): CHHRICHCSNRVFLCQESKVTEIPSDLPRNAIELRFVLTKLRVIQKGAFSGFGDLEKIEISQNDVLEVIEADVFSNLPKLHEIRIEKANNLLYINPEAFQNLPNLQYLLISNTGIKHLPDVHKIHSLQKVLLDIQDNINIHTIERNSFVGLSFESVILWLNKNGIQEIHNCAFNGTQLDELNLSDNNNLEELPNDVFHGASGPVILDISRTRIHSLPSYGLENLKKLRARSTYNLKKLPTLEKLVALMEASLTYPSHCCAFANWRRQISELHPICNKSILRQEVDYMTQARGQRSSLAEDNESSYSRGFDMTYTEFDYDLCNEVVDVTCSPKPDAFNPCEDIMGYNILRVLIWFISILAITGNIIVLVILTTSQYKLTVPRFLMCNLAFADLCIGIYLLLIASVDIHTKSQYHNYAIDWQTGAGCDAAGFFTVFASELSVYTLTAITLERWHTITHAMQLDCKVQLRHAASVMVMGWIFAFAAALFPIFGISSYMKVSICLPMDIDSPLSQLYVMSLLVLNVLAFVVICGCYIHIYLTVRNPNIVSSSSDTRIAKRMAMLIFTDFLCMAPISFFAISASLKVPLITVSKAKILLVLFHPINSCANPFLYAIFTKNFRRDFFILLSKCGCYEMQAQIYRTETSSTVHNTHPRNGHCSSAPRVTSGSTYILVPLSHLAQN

[3] = molecular target: T5, neuropeptide S receptor 1 (NPSR1B) (Homo sapiens, UniProt Q6W5P4); assay: PathHunter β-arrestin antagonist assay; assay type: cell-based
T5 sequence (Q6W5P4 1-377 isoform Q6W5P4-4): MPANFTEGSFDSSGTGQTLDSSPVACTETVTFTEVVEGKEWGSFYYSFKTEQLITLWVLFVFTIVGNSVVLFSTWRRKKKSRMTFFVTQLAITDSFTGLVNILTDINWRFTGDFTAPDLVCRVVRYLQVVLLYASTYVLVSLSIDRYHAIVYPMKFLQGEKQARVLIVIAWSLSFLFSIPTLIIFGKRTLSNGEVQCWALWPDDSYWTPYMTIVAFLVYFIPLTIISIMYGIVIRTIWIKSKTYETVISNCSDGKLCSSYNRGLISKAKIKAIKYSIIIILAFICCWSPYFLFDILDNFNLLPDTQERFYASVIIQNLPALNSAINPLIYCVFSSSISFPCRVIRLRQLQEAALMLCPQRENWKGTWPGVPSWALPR

[4] = molecular target: T6, prolactin releasing hormone receptor (PRLHR) (Homo sapiens, UniProt P49683); assay: PathHunter β-arrestin antagonist assay; assay type: cell-based
T6 sequence (P49683 1-370): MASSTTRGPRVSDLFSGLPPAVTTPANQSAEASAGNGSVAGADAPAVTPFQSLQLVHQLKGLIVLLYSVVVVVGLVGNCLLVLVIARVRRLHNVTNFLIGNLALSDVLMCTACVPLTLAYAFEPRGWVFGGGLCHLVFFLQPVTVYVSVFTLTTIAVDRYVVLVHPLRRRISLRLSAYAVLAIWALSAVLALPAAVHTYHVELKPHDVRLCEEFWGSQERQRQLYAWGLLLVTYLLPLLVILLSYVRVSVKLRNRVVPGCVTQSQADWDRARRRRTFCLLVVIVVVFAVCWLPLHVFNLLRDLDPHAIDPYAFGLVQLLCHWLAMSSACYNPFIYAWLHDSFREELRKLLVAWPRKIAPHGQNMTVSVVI

AVPR1A = assay: PathHunter β-arrestin antagonist assay; assay type: cell-based; conditions: primary screen at 20 μM
AVPR1B = assay: PathHunter β-arrestin antagonist assay; assay type: cell-based; conditions: primary screen at 20 μM
[5] = tested on: dopamine D2b receptor (DRD2L); assay: PathHunter β-arrestin antagonist assay; assay type: cell-based; conditions: primary screen at 20 μM
[6] = tested on: hydroxytryptamine receptor (HTR1B); assay: PathHunter β-arrestin antagonist assay; assay type: cell-based; conditions: primary screen at 20 μM
ADRA2A = assay: PathHunter β-arrestin antagonist assay; assay type: cell-based; conditions: primary screen at 20 μM
AVPR2 = AVPR2 (Homo sapiens, UniProt P30518); assay: PathHunter β-arrestin antagonist assay; assay type: cell-based
Sequence of AVPR2 (P30518 whole entry): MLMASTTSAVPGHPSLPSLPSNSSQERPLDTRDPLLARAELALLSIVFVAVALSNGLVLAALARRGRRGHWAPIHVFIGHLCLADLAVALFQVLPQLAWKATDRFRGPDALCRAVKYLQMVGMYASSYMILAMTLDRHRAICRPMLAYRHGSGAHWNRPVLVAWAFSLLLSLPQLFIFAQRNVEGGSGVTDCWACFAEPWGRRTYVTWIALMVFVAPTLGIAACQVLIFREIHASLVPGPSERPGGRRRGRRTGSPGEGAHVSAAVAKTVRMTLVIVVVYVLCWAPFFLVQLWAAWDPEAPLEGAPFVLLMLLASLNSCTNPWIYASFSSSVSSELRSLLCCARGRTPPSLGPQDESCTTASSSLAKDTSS

oxytocin receptor (OXTR) = molecular target: T7, oxytocin receptor (OXTR) (Homo sapiens, UniProt P30559); assay: PathHunter β-arrestin antagonist assay; assay type: cell-based
T7 sequence (P30559 1-389): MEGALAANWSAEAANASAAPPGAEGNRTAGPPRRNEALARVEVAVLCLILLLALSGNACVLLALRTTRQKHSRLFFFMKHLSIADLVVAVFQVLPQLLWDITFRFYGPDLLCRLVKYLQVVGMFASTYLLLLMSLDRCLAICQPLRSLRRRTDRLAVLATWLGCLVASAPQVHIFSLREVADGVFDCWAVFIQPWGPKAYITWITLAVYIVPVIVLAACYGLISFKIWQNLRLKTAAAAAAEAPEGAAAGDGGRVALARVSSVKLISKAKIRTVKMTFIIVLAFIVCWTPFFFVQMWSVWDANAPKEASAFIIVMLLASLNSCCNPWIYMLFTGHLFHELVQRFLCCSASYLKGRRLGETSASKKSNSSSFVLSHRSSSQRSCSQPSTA

COC(=O)[C@@H]1[C@H]2C[C@@H](c3[nH]c4ccccc4c3CCn3cc(-c4cccc(Cl)c4)nn3)N(C#N)C[C@@H]2CC[C@@H]1O [Y1f]
antagonistic activity in the primary screen (panel of 168 GPCRs): significant inhibitory activities
hit rate (panel of 168 GPCRs): 3.0%
number of GPCRs antagonized at ≥80% inhibition (panel of 168 GPCRs): five
inhibition at 20 µM (chemokine receptor CCR3): ≥ 80%
inhibition at 20 µM (chemokine receptor CCR8): ≥ 80%
inhibition at 20 µM (CX3CR1): ≥ 80%
inhibition at 20 µM (CXCR4): ≥ 80%
inhibition at 20 µM [1]: ≥ 80%

COC(=O)[C@@H]1[C@H]2C[C@@H]([C@@]3(CCn4cc(CCCCO)nn4)C(=O)Nc4ccccc43)N(C#N)C[C@@H]2CC[C@@H]1O [Y2e]
antagonistic activity in the primary screen (panel of 168 GPCRs): inactive

COC(=O)[C@@H]1[C@H]2C[C@@H]3N(CC[C@@]34C(=O)N(c3cncc(OC)n3)c3ccccc34)C[C@@H]2CC[C@@H]1O [Y3h]
antagonistic activity in the primary screen (panel of 168 GPCRs): inactive

COC(=O)[C@@H]1[C@H]2C[C@@H]3OCc4ccccc4-n4c3c(c3ccccc34)CCN(C#N)C[C@@H]2CC[C@@H]1O [Y4a]
antagonistic activity in the primary screen (panel of 168 GPCRs): inactive

COC(=O)[C@@H]1[C@H]2C[C@H]3OCc4ccccc4-n4c3c(c3ccccc34)CCN(C#N)C[C@@H]2CC[C@@H]1O [Y5a]
antagonistic activity in the primary screen (panel of 168 GPCRs): inactive

COC(=O)[C@@H]1[C@H]2C[C@@H](OCc3ccc(Br)cc3)c3[nH]c4ccccc4c3CCN(C#N)C[C@@H]2CC[C@@H]1O [Y6p]
antagonistic activity in the primary screen (panel of 168 GPCRs): significant inhibitory activities
hit rate (panel of 168 GPCRs): 2.4%
number of GPCRs antagonized at ≥80% inhibition (panel of 168 GPCRs): four
inhibition at 20 µM [2]: ≥ 80%
inhibition at 20 µM [3]: ≥ 80%
inhibition at 20 µM [4]: ≥ 80%

COC(=O)[C@@H]1[C@H]2C[C@@H]3N(CC[C@@]34C(=O)N(Cc3cccc(OC)c3)c3ccccc34)C[C@@H]2CC[C@@H]1OCc1cccc(OC)c1 [Y7g]
antagonistic activity in the primary screen (panel of 168 GPCRs): significant inhibitory activities
hit rate (panel of 168 GPCRs): 2.4%
antagonistic activity in the GPCR screen (AVPR1A): inhibited
antagonistic activity in the GPCR screen (AVPR1B): inhibited
antagonistic activity in the GPCR screen [5]: not inhibited
antagonistic activity in the GPCR screen [6]: not inhibited
antagonistic activity in the GPCR screen (ADRA2A): not inhibited

COC(=O)[C@@H]1[C@H]2C[C@H]3c4[nH]c5ccccc5c4CCN3C[C@@H]2CC[C@@H]1O [yohimbine, reference compound]
inhibition at 20 µM (AVPR2): ≤ 5%
inhibition at 20 µM (oxytocin receptor (OXTR)): ≤ 5%
antagonistic activity in the GPCR screen [5]: inhibited
antagonistic activity in the GPCR screen [6]: inhibited

— publication PMC7392148 (Bioorganic & medicinal chemistry, 2020)
